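In this assay, cells in 96-well plates receive the compound at five concentrations for 48 hours. Endpoints are linearly interpolated between the surrounding concentrations. The concentration for 50% growth inhibition is given as GI50.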 Activity calls are given as the source filed them. Rule as the data show it: active = GI50 up to about 1.1 µM and inactive = higher.
Columns and labels:
Assay in all cases: NCI anticancer screen, dose series, 48 h
[1] = system: NCI-H460
[2] = system: OVCAR-5
[3] = system: UO-31
[4] = system: RPMI-8226
[5] = system: NCI-H226
[6] = system: CCRF-CEM
[7] = system: SF-539
[8] = system: SNB-19
[9] = system: 786-0
[10] = system: Malme-3M
[11] = system: SK-MEL-2
[12] = system: SF-295
[13] = system: K562
[14] = system: UACC-62
[15] = system: COLO 205
[16] = system: HOP-62
[17] = system: SN12C
[18] = system: EKVX

Structure (SMILES) | GI50 [1] | GI50 [2] | GI50 [3] | GI50 [4] | GI50 [5] | GI50 [6] | GI50 [7] | GI50 [8] | GI50 [9] | GI50 [10] | GI50 [11] | GI50 [12] | GI50 [13] | GI50 [14] | GI50 [15] | GI50 [16] | GI50 [17] | GI50 [18]
N#Cc1c2ccccc2cn1-c1ccc(F)cc1 | 29.7 µM (inactive) | 45.6 µM (inactive) | 8.59 µM (inactive) | 22 µM (inactive) | 9.27 µM (inactive) | 31 µM (inactive) | 24.8 µM (inactive) | 22.4 µM (inactive) | 30.3 µM (inactive) | 33.7 µM (inactive) | > 10 µM (inactive) | 23.5 µM (inactive) | 26.7 µM (inactive) | 30 µM (inactive) | 26.2 µM (inactive) | 23 µM (inactive) |  | 
N#CC12CCC1C1CCCCC12N1CCSCC1 (stereo not given) | > 100 µM (inactive) |  | > 100 µM (inactive) | 51.1 µM (inactive) |  | > 100 µM (inactive) | > 100 µM (inactive) | > 100 µM (inactive) | > 100 µM (inactive) |  | 35.4 µM (inactive) | > 100 µM (inactive) | 76.6 µM (inactive) | > 100 µM (inactive) | > 100 µM (inactive) | > 100 µM (inactive) | > 100 µM (inactive) | 
N#Cc1c2c(c(N=[N+]=[N-])n3c1nc1ccccc13)CCCC2 | 1.92 µM (inactive) | 6.07 µM (inactive) | 1.94 µM (inactive) | 1.71 µM (inactive) | 1.73 µM (inactive) |  | 1.93 µM (inactive) | 2.55 µM (inactive) | 1.9 µM (inactive) | 2.4 µM (inactive) | 1.73 µM (inactive) | 2.05 µM (inactive) | 2.16 µM (inactive) |  | 3.27 µM (inactive) | 16.2 µM (inactive) | 2.14 µM (inactive) | 16.9 µM (inactive)
O=C(CSc1nnc(-c2ccc(/N=C\c3ccc(Cl)cc3)cc2)o1)Nc1ccc(Cl)cc1 | > 100 µM (inactive) |  | > 100 µM (inactive) | 41.7 µM (inactive) | > 100 µM (inactive) | > 100 µM (inactive) |  | > 100 µM (inactive) | > 100 µM (inactive) | > 100 µM (inactive) | > 100 µM (inactive) | > 100 µM (inactive) | > 100 µM (inactive) | > 100 µM (inactive) | > 100 µM (inactive) | > 100 µM (inactive) | > 100 µM (inactive) | > 100 µM (inactive)
CC(=O)NC1C(OCc2ccccc2)OC(COC(=O)CCCCCCCCCCNC(=O)c2cccc3c(=O)c4ccccc4[nH]c23)C(O)C1OC(C)C(=O)NC(C)C(=O)NC(CCC(N)=O)C(N)=O (stereo not given) | 61.5 µM (inactive) | > 100 µM (inactive) | > 100 µM (inactive) | 32.1 µM (inactive) | 38.7 µM (inactive) |  | 92.9 µM (inactive) | 47.3 µM (inactive) | > 100 µM (inactive) |  | 50.8 µM (inactive) | 71.1 µM (inactive) | 35.6 µM (inactive) | 35.2 µM (inactive) | 85.3 µM (inactive) | > 100 µM (inactive) | > 100 µM (inactive) | > 100 µM (inactive)
COC1OC2COC(C)(C)OC2C(OC(C)=O)C1NC(=O)N(CCCl)N=O (stereo not given) | 46.7 µM (inactive) | > 100 µM (inactive) |  |  | 47 µM (inactive) | 24.3 µM (inactive) | 21.4 µM (inactive) | 46 µM (inactive) | 59.4 µM (inactive) | > 100 µM (inactive) | > 100 µM (inactive) | 28.8 µM (inactive) | 54.8 µM (inactive) | 19.3 µM (inactive) | > 100 µM (inactive) | 48.1 µM (inactive) | > 100 µM (inactive) | > 100 µM (inactive)
Cc1cc2c([nH]c3ccccc32)c2c1OC(C)(C)C1C3CC(C)(C)Oc4c(C)cc5c6ccccc6n(c5c43)C21 (stereo not given) | 52.7 µM (inactive) | > 100 µM (inactive) | > 100 µM (inactive) | > 100 µM (inactive) |  | > 100 µM (inactive) | > 100 µM (inactive) | > 100 µM (inactive) | > 100 µM (inactive) | > 100 µM (inactive) | > 100 µM (inactive) | > 100 µM (inactive) | > 100 µM (inactive) | > 100 µM (inactive) | > 100 µM (inactive) | > 100 µM (inactive) | > 100 µM (inactive) | > 100 µM (inactive)
COc1ccc(C2CC(c3cc(C)ccc3O)=NC(N)=N2)cc1 (stereo not given) | > 100 µM (inactive) | > 100 µM (inactive) | > 100 µM (inactive) | > 100 µM (inactive) | > 100 µM (inactive) | > 100 µM (inactive) | > 100 µM (inactive) | > 100 µM (inactive) | > 100 µM (inactive) | > 100 µM (inactive) |  | > 100 µM (inactive) | > 100 µM (inactive) | > 100 µM (inactive) | > 100 µM (inactive) | > 100 µM (inactive) | > 100 µM (inactive) | > 100 µM (inactive)
Cc1ccc([S+]([O-])C(C)C(Cl)c2ccccc2)cc1 (stereo not given) | > 100 µM (inactive) | > 100 µM (inactive) | > 100 µM (inactive) | 35.9 µM (inactive) | > 100 µM (inactive) | 47.6 µM (inactive) | > 100 µM (inactive) |  | > 100 µM (inactive) |  | > 100 µM (inactive) | 86.7 µM (inactive) | 45.8 µM (inactive) | 80 µM (inactive) | 30.7 µM (inactive) | > 100 µM (inactive) | > 100 µM (inactive) | 
COc1ccc2nc(-c3ccccn3)cc(O)c2c1 | 34.7 µM (inactive) | > 100 µM (inactive) | 18.4 µM (inactive) | 37.8 µM (inactive) |  | 51.2 µM (inactive) | 30 µM (inactive) | > 100 µM (inactive) | 90.2 µM (inactive) | 24 µM (inactive) |  |  | 17.4 µM (inactive) | 32.8 µM (inactive) | 28 µM (inactive) | > 100 µM (inactive) | 47 µM (inactive) | 55.3 µM (inactive)
O=C(COC(=O)c1cccc2c(=O)c3ccccc3[nH]c12)Nc1ccccc1 | 94.6 µM (inactive) |  | 22.2 µM (inactive) | 23.7 µM (inactive) | 33.3 µM (inactive) |  | 51.8 µM (inactive) | > 100 µM (inactive) | > 100 µM (inactive) | 35.9 µM (inactive) |  | 50.8 µM (inactive) | 33.2 µM (inactive) | 26.4 µM (inactive) | 21.7 µM (inactive) | > 100 µM (inactive) | > 100 µM (inactive) | > 100 µM (inactive)
Cc1cc2c(c3nocc13)C(=O)c1ccccc1C2=O | > 100 µM (inactive) | > 100 µM (inactive) | > 100 µM (inactive) | > 100 µM (inactive) |  | > 100 µM (inactive) | > 100 µM (inactive) | > 100 µM (inactive) | > 100 µM (inactive) | > 100 µM (inactive) | > 100 µM (inactive) | > 100 µM (inactive) | > 100 µM (inactive) | > 100 µM (inactive) | > 100 µM (inactive) | > 100 µM (inactive) | > 100 µM (inactive) | > 100 µM (inactive)
C/C=C(\CCOS(=O)(=O)c1ccc(C)cc1)[Si](C)(C)C | > 100 µM (inactive) | > 100 µM (inactive) | > 100 µM (inactive) | > 100 µM (inactive) |  | 0.115 µM (active) | > 100 µM (inactive) | > 100 µM (inactive) | > 100 µM (inactive) | > 100 µM (inactive) | > 100 µM (inactive) | > 100 µM (inactive) | > 100 µM (inactive) | > 100 µM (inactive) | > 100 µM (inactive) |  | > 100 µM (inactive) | > 100 µM (inactive)
CCOC(=O)C1C(c2ccc([N+](=O)[O-])cc2)NC(c2ccc([N+](=O)[O-])cc2)C(C(=O)OC)S1(=O)=O (stereo not given) | > 100 µM (inactive) | > 100 µM (inactive) | > 100 µM (inactive) | > 100 µM (inactive) | > 100 µM (inactive) | > 100 µM (inactive) |  | > 100 µM (inactive) | > 100 µM (inactive) | > 100 µM (inactive) | > 100 µM (inactive) | > 100 µM (inactive) | > 100 µM (inactive) | > 100 µM (inactive) | > 100 µM (inactive) | > 100 µM (inactive) | > 100 µM (inactive) | > 100 µM (inactive)
CC(C)C/C(CC(=O)CCC(=O)Nc1ccccc1[N+](=O)[O-])=N\NC(=O)c1cc2ccccc2cc1O | 33.7 µM (inactive) | 31 µM (inactive) | 37 µM (inactive) | 50 µM (inactive) | 19.3 µM (inactive) | 9.14 µM (inactive) | 27.1 µM (inactive) | 45.5 µM (inactive) | 36.8 µM (inactive) | 42.6 µM (inactive) |  | 43.5 µM (inactive) | 25.9 µM (inactive) | 25.7 µM (inactive) | 28.6 µM (inactive) | 57.3 µM (inactive) | 50.6 µM (inactive) | 34 µM (inactive)
COc1ccccc1-n1c(N)c2c(C)c(-c3ccccc3)[nH]c2nc1=S | > 100 µM (inactive) | > 100 µM (inactive) | > 100 µM (inactive) | 50.2 µM (inactive) | 63 µM (inactive) | > 100 µM (inactive) | 33.7 µM (inactive) | > 100 µM (inactive) | > 100 µM (inactive) | 91.8 µM (inactive) | > 100 µM (inactive) |  | > 100 µM (inactive) | 77.1 µM (inactive) | > 100 µM (inactive) | > 100 µM (inactive) | > 100 µM (inactive) | 
[N-]=[N+]=NC1C(Br)C(=O)NC(=O)N1[C@H]1C[C@H](O)[C@@H](CO)O1 (stereo not given in full) | > 100 µM (inactive) | > 100 µM (inactive) | > 100 µM (inactive) |  |  |  | > 100 µM (inactive) | > 100 µM (inactive) | > 100 µM (inactive) |  | > 100 µM (inactive) | > 100 µM (inactive) | > 100 µM (inactive) | > 100 µM (inactive) | > 100 µM (inactive) | > 100 µM (inactive) | > 100 µM (inactive) | > 100 µM (inactive)
